How the values were obtained:
REC-1 cells = experiment: Growth inhibitory activity in BTK-dependent REC-1 cell line (CellTiter-Glo); assay type: cell-based; settings: Homo sapiens, Rec1, 144 h, 6 days after administration, read-out: REC1 Cellular Grwoth Inhibition IC50
Procedure: REC-1 (ATCC) and REC-1 BTK^C481S cells were plated in 96-well plates at 8,000 cells/well in 90 ul of RPMI growth medium containing 10% heat-inactivated FBS and 1× Penicillin Streptomycin, and then incubated at 37° C. overnight. The following day, the test compound was administered to the cells by using 10× compound stock solution prepared in growth medium at various concentrations. After administration of the compound, cells were then incubated at 37° C. for 6 days. Before CellTiter-Glo assay, the plates were equilibrated at room temperature for approximately 10 minutes. 100 ul of CellTiter-Glo® Reagent (Promega) was added to each well. The plates were then incubated at room temperature for 10 minutes and luminescence was recorded by EnSpire plate reader (PerkinElmer).
The GI50 values (i.e., the concentration of test compound at which 50% of cell growth are inhibited) were calculated. A designation of “A” corresponds to a […] value less than 20 nM. A designation of “B” corresponds to a […] value greater than or equal to 20 nM and less than 200 nM. A designation of “C” corresponds to a […] value greater than or equal to 200 nM.

BTK = target: T1, BTK (Homo sapiens, UniProt Q06187); experiment: BTK degradative activity in a RAMOS cell line (Western blot); assay type: cell-based; settings: 6 hours after administration, read-out: RAMOS BTK Degradation DC50
T1 construct: BTK Degradative Activity of Exemplary Compounds of the Present Disclosure in a RAMOS Cell Line; host or cells: RAMOS
How it was run: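 Ramos cells in RPMI with 10% FBS were treated with compound in DMSO at various concentrations for 6 h at 37 °C. BTK was measured by Western blot against GAPDH with infrared fluorescent detection and band quantification. DC50 is the concentration at which 50% of BTK is degraded.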

T1 sequence (Q06187 whole entry): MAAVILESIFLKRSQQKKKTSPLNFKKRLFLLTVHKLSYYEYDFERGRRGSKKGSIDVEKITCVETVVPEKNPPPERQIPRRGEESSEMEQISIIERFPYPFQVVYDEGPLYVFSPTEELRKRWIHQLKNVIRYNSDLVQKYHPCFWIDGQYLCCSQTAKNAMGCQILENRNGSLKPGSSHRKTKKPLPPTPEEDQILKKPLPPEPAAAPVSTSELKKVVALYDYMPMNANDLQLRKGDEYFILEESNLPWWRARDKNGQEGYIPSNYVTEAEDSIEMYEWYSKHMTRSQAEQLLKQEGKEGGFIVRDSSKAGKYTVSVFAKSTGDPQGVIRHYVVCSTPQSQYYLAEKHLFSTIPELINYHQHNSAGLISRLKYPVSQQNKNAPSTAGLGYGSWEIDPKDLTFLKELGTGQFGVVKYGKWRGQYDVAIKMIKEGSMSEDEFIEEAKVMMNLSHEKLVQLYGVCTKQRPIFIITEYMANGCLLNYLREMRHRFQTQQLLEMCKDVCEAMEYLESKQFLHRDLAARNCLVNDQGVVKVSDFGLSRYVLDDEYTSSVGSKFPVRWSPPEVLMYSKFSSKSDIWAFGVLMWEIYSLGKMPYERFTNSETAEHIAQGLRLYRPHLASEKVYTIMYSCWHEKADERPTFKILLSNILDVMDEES

| DC50 (BTK) | SMILES | IC50 (REC-1 cells) |
| --- | --- | --- |
| < 10 nM | COc1ccc(F)cc1C(=O)NCc1ccc(-c2nn(C3CCN(C(=O)c4ccc(CN5CCN(c6ccc7c(c6)CN([C@H]6CCC(=O)NC6=O)C7=O)CC5)cc4)C3)c3ncnc(N)c23)cc1 (stereo partly shown) [Compound 63] | 20 to 200 nM |
| < 10 nM | COc1ccc(F)cc1C(=O)NCc1ccc(-c2nn(C3CN(C(=O)c4ccc(CN5CCN(c6ccc7c(c6)CN([C@H]6CCC(=O)NC6=O)C7=O)CC5)cc4)C3)c3ncnc(N)c23)cc1 [Compound 62, (S)—N-(4-(4-amino-1-(1-(4-((4-(2-(2,6-dioxopiperidin-3-yl)-1-oxoisoindolin-5-yl)piperazin-1-yl)methyl)benzoyl)azetidin-3-yl)-1H-pyrazolo[3,4-d]pyrimidin-3-yl)benzyl)-5-fluoro-2-methoxybenzamide] | 20 to 200 nM |
| < 10 nM | COc1ccc(F)cc1C(=O)NCc1ccc(-c2nn(C3CCN(c4ccc(CN5CCN(c6ccc7c(c6)CN([C@H]6CCC(=O)NC6=O)C7=O)CC5)cn4)CC3)c3ncnc(N)c23)cc1 [Compound 52, (S)—N-(4-(4-amino-1-(1-(5-((4-(2-(2,6-dioxopiperidin-3-yl)-1-oxoisoindolin-5-yl)piperazin-1-yl)methyl)pyridin-2-yl)piperidin-4-yl)-1H-pyrazolo[3,4-d]pyrimidin-3-yl)benzyl)-5-fluoro-2-methoxybenzamide] | < 20 nM |
| 10 to 100 nM | COc1ccc(F)cc1C(=O)NCc1ccc(-c2nn(C3CCN(C(=O)CCCCN4CCN(c5ccc6c(c5)CN([C@H]5CCC(=O)NC5=O)C6=O)CC4)C3)c3ncnc(N)c23)cc1 (stereo partly drawn) [Compound 55, N-(4-(4-amino-1-(1-(5-(4-(2-((S)-2,6-dioxopiperidin-3-yl)-1-oxoisoindolin-5-yl)piperazin-1-yl)pentanoyl)pyrrolidin-3-yl)-1H-pyrazolo[3,4-d]pyrimidin-3-yl)benzyl)-5-fluoro-2-methoxybenzamide] | ≥ 200 nM |
| < 10 nM | COc1ccc(F)cc1C(=O)NCc1ccc(-c2nn(C3CN(c4ccc(CN5CCN(c6ccc7c(c6)CN([C@H]6CCC(=O)NC6=O)C7=O)CC5)cn4)C3)c3ncnc(N)c23)cc1 [Compound 54, (S)—N-(4-(4-amino-1-(1-(5-((4-(2-(2,6-dioxopiperidin-3-yl)-1-oxoisoindolin-5-yl)piperazin-1-yl)methyl)pyridin-2-yl)azetidin-3-yl)-1H-pyrazolo[3,4-d]pyrimidin-3-yl)benzyl)-5-fluoro-2-methoxybenzamide] | < 20 nM |
| < 10 nM | COc1ccc(F)cc1C(=O)NCc1ccc(-c2nn(C3CCN(c4ccc(CN5CCN(c6ccc7c(c6)CN([C@H]6CCC(=O)NC6=O)C7=O)CC5)cc4)CC3)c3ncnc(N)c23)cc1 [Compound 53, (S)—N-(4-(4-amino-1-(1-(4-((4-(2-(2,6-dioxopiperidin-3-yl)-1-oxoisoindolin-5-yl)piperazin-1-yl)methyl)phenyl)piperidin-4-yl)-1H-pyrazolo[3,4-d]pyrimidin-3-yl)benzyl)-5-fluoro-2-methoxybenzamide] | < 20 nM |
| < 10 nM | COc1ccc(F)cc1C(=O)NCc1ccc(-c2nn(C3CCN(c4ccc(CN5CCN(c6ccc7c(c6)CN([C@H]6CCC(=O)NC6=O)C7=O)CC5)cn4)C3)c3ncnc(N)c23)cc1 (stereo partly drawn) [Compound 92, N-(4-(4-amino-1-(1-(5-((4-(2-((S)-2,6-dioxopiperidin-3-yl)-1-oxoisoindolin-5-yl)piperazin-1-yl)methyl)pyridin-2-yl)pyrrolidin-3-yl)-1H-pyrazolo[3,4-d]pyrimidin-3-yl)benzyl)-5-fluoro-2-methoxybenzamide] | 20 to 200 nM |
| 10 to 100 nM | COc1ccc(F)cc1C(=O)NCc1ccc(-c2nn(-c3ccc(N4CCC(CN5CCN(c6ccc7c(c6)C(=O)N(C6CCC(=O)NC6=O)C7=O)CC5)CC4)c(F)c3)c3ncnc(N)c23)cc1 (stereo not shown) [Compound 50, N-(4-(4-amino-1-(4-(4-((4-(2-(2,6-dioxopiperidin-3-yl)-1,3-dioxoisoindolin-5-yl)piperazin-1-yl)methyl)piperidin-1-yl)-3-fluorophenyl)-1H-pyrazolo[3,4-d]pyrimidin-3-yl)benzyl)-5-fluoro-2-methoxybenzamide] | < 20 nM |
| ≥ 100 nM | COc1ccc(F)cc1C(=O)NCc1ccc(-c2nn(C3CCN(c4ccc(CN5CCN(c6ccc7c(c6)CN([C@H]6CCC(=O)NC6=O)C7=O)CC5)nc4)C3)c3ncnc(N)c23)cc1 (stereo partly drawn) [Compound 58, N-(4-(4-amino-1-(1-(6-((4-(2-((S)-2,6-dioxopiperidin-3-yl)-1-oxoisoindolin-5-yl)piperazin-1-yl)methyl)pyridin-3-yl)pyrrolidin-3-yl)-1H-pyrazolo[3,4-d]pyrimidin-3-yl)benzyl)-5-fluoro-2-methoxybenzamide] | ≥ 200 nM |
| < 10 nM | COc1ccc(F)cc1C(=O)NCc1ccc(-c2nn(C3CCN(C(=O)CCCCCN4CCN(c5ccc6c(c5)CN([C@H]5CCC(=O)NC5=O)C6=O)CC4)C3)c3ncnc(N)c23)cc1 (stereo partly drawn) [Compound 64, N-(4-(4-amino-1-(1-(6-(4-(2-((S)-2,6-dioxopiperidin-3-yl)-1-oxoisoindolin-5-yl)piperazin-1-yl)hexanoyl)pyrrolidin-3-yl)-1H-pyrazolo[3,4-d]pyrimidin-3-yl)benzyl)-5-fluoro-2-methoxybenzamide] | 20 to 200 nM |

Continued, compound first:

| SMILES | DC50 (BTK) | IC50 (REC-1 cells) |
| --- | --- | --- |
| O=C1CCC(N2Cc3c(C#CCCCCC(=O)N4CCC(Nc5ncnc6[nH]cc(C(=O)c7ccc(Oc8ccccc8)cc7Cl)c56)CC4)cccc3C2=O)C(=O)N1 (stereo not shown) [Compound 41, 3-(4-(7-(4-((5-(2-chloro-4-phenoxybenzoyl)-7H-pyrrolo[2,3-d]pyrimidin-4-yl)amino)piperidin-1-yl)-7-oxohept-1-yn-1-yl)-1-oxoisoindolin-2-yl)piperidine-2,6-dione] | ≥ 100 nM |  |
| O=C1CCC(N2Cc3cc(N4CCN(CCCCCCC(=O)N5CCC[C@@H](Nc6ncnc7[nH]cc(C(=O)c8ccc(Oc9ccccc9)cc8Cl)c67)C5)CC4)ccc3C2=O)C(=O)N1 (stereo partly drawn) [Compound 17, 3-(5-(4-(7-((R)-3-((5-(2-chloro-4-phenoxybenzoyl)-7H-pyrrolo[2,3-d]pyrimidin-4-yl)amino)piperidin-1-yl)-7-oxoheptyl)piperazin-1-yl)-1-oxoisoindolin-2-yl)piperidine-2,6-dione] | 10 to 100 nM |  |
| O=C1CC[C@H](N2Cc3cc(N4CCN(CC5CCN(C(=O)N6CCC[C@@H](Nc7ncnc8[nH]cc(C(=O)c9ccc(Oc%10ccccc%10)cc9Cl)c78)C6)CC5)CC4)ccc3C2=O)C(=O)N1 [Compound 32, (S)-3-(5-(4-((1-((R)-3-((5-(2-chloro-4-phenoxybenzoyl)-7H-pyrrolo[2,3-d]pyrimidin-4-yl)amino)piperidine-1-carbonyl)piperidin-4-yl)methyl)piperazin-1-yl)-1-oxoisoindolin-2-yl)piperidine-2,6-dione] | 10 to 100 nM |  |
| O=C1CCC(N2C(=O)c3ccc(N4CCC(N5CC(CC(=O)N6CCC(Nc7ncnc8[nH]cc(C(=O)c9ccc(Oc%10ccccc%10)cc9Cl)c78)CC6)C5)CC4)cc3C2=O)C(=O)N1 (stereo not shown) [Compound 48, 5-(4-(3-(2-(4-((5-(2-chloro-4-phenoxybenzoyl)-7H-pyrrolo[2,3-d]pyrimidin-4-yl)amino)piperidin-1-yl)-2-oxoethyl)azetidin-1-yl)piperidin-1-yl)-2-(2,6-dioxopiperidin-3-yl)isoindoline-1,3-dione] | < 10 nM |  |
| COc1ccc(C(=O)N2CCCN(CC3CCN(c4ccc(Nc5ncnc6[nH]cc(C(=O)c7ccc(Oc8ccccc8)cc7Cl)c56)cc4F)CC3)CC2)cc1N1CCC(=O)NC1=O [Compound 75, 1-(5-(4-((1-(4-((5-(2-chloro-4-phenoxybenzoyl)-7H-pyrrolo[2,3-d]pyrimidin-4-yl)amino)-2-fluorophenyl)piperidin-4-yl)methyl)-1,4-diazepane-1-carbonyl)-2-methoxyphenyl)dihydropyrimidine-2,4(1H,3H)-dione] | 10 to 100 nM |  |
| O=C1CCC(N2C(=O)c3ccc(N4CCN(CCCCCN5CCC(Nc6ncnc7[nH]cc(C(=O)c8ccc(Oc9ccccc9)cc8Cl)c67)CC5)CC4)cc3C2=O)C(=O)N1 (stereo not shown) [Compound 34, 5-(4-(5-(4-((5-(2-chloro-4-phenoxybenzoyl)-7H-pyrrolo[2,3-d]pyrimidin-4-yl)amino)piperidin-1-yl)pentyl)piperazin-1-yl)-2-(2,6-dioxopiperidin-3-yl)isoindoline-1,3-dione] | < 10 nM |  |
| O=C1CCC(N2C(=O)c3ccc(N4CCN(CCCCC(=O)N5CCC(Nc6ncnc7[nH]cc(C(=O)c8ccc(Oc9ccccc9)cc8Cl)c67)CC5)CC4)cc3C2=O)C(=O)N1 (stereo not shown) [Compound 31, 5-(4-(5-(4-((5-(2-chloro-4-phenoxybenzoyl)-7H-pyrrolo[2,3-d]pyrimidin-4-yl)amino)piperidin-1-yl)-5-oxopentyl)piperazin-1-yl)-2-(2,6-dioxopiperidin-3-yl)isoindoline-1,3-dione] | 10 to 100 nM |  |
| O=C1CCC(N2C(=O)c3ccc(N4CCN(CCCCCCC(=O)N5CCC[C@@H](Nc6ncnc7[nH]cc(C(=O)c8ccc(Oc9ccccc9)cc8Cl)c67)C5)CC4)cc3C2=O)C(=O)N1 (stereo partly shown) [Compound 8] | 10 to 100 nM |  |

Reference: patent US11530222B2, “Substituted pyrrolopyrimidine and pyrazolopyrimidine as Bruton's tyrosine kinase (BTK) degraders” (ACCUTAR BIOTECHNOLOGY INC., priority 2021, dated 2022)
